Data from patent US20070105944A1, “Taxane metabolites” (priority 2002, published 2007).
Where “and” joins values, the source holds several entries; their conditions need not be identical. Equal entries are not always repeated.

How the values were obtained:
[1] = [14C]Compound I incubation with mouse liver microsomes (MLM), metabolite profile; type: in vitro ADME; conditions: 1 hr incubation, 37° C., 20 μM, NADPH
Method: (§1) Each mL of the incubation mixture, in 100 mM of potassium phosphate buffer (pH 7.4), contained: 20 nmol of test article, 1 mg of microsomal protens, 3 μmol of NADPH and 10 μmol of magnesium chloride. The final concentrations were: test article, 20 μM; microsomal proteins, 1 mg/mL; NADPH, 3 mM; magnesium chloride, 10 mM; acetonitrile, 1% (v/v). 7-EC (100 μM) was used as the positive control for enzyme activity in the microsomes of all species. Two negative controls, one without NADPH and the other using heat-treated microsomes (5 min in boiling water), were carried out to determine the stability of the test article. […]
(§2) Incubations were carried out aerobically at 37° C. with constant shaking. […] At the end of incubation, duplicate aliquots (10 μL) of the incubation mixture of the negative controls and the test article incubations were taken for liquid scintillation counting of radioactivity. […]
(§3) The radiochemical purity of [^14C]Compound I and the metabolite profiles of the compound in the methanol extract of liver microsomal incubations were determined by HPLC radiochromatograpby using the following system:
(§4) Fractions of the HPLC effluent were collected (0.25 min/fraction) into a 96-well deep luma plates and the collected fractions were dried using Savant Automatic SpeedVac system. Radioactivity was then determined with a Packard Top Count-NXT counter. […]

[2] = [14C]Compound I incubation with rat liver microsomes (RLM), metabolite profile; type: in vitro ADME; conditions: 1 hr incubation, 37° C., 20 μM, NADPH
Method: as §1, §2, §3, §4

[3] = [14C]Compound I incubation with dog liver microsomes (DLM), metabolite profile; type: in vitro ADME; conditions: 1 hr incubation, 37° C., 20 μM, NADPH
Method: as §1, §2, §3, §4

[4] = [14C]Compound I incubation with monkey liver microsomes (MKLM), metabolite profile; type: in vitro ADME; conditions: 1 hr incubation, 37° C., 20 μM, NADPH
Method: as §1, §2, §3, §4

[5] = [14C]Compound I incubation with human liver microsomes (HLM), metabolite profile; type: in vitro ADME; conditions: 1 hr incubation, 37° C., 20 μM, NADPH
Method: as §1, §2, §3, §4

[6] = Rank order of metabolic stability in liver microsomes of the five species; type: in vitro ADME; conditions: 1 hr incubation
Method: Each mL of the incubation mixture, in 100 mM of potassium phosphate buffer (pH 7.4), contained: 20 nmol of test article, 1 mg of microsomal protens, 3 μmol of NADPH and 10 μmol of magnesium chloride. The final concentrations were: test article, 20 μM; microsomal proteins, 1 mg/mL; NADPH, 3 mM; magnesium chloride, 10 mM; acetonitrile, 1% (v/v). 7-EC (100 μM) was used as the positive control for enzyme activity in the microsomes of all species. Two negative controls, one without NADPH and the other using heat-treated microsomes (5 min in boiling water), were carried out to determine the stability of the test article. The total volume of incubation mixture was 5 mL each for the test article incubations and 1 mL each for the positive and negative controls.
Incubations were carried out aerobically at 37° C. with constant shaking. Incubation mixtures were prepared at 0-4° C. (on ice). […] At the end of incubation, duplicate aliquots (10 μL) of the incubation mixture of the negative controls and the test article incubations were taken for liquid scintillation counting of radioactivity. […]
[^14C]Compound I was separately incubated with mouse, rat, dog, monkey and human liver microsoomes fortified with NADPH for 1 hr at 37° C. The incubation mixtures were extracted with methanol and the extacts were analyzed by HPLC radiochromatograpby and LC/RAM/(+)ESI-MS and MS/MS.

[7] = Biotransformation of [14C]Compound I in bile duct cannulated rats after a single oral dose; type: in vivo, rat; conditions: single 25-mg/kg oral dose
Excerpt: A single 25-mg/kg oral dose of [^14C] Compound I, as a solution in cremophore
EL/ethanol/water (10:10:80, v/v/v), was separately administered to two male bile duct cannulated (BDC) rats. Within 24 hr after dosing, an average of 25.8% of the administered dose was excreted in bile, The corresponding value in urine was 3.9%. […] Thus, the oral absorption of [^14C] Compound I in rats was estimated to be at least 30%. Following the oral dose, the concentration of total radioactivity in plasma was measurable up to 24 hr and averaged 349 ng-equiv./mL at that time. The parent drug was a prominent radioactive component in plasma. At 24 hr after dosing, the concentration of Compound I in plasma was estimated to be 61 ng/mL. More than 20 hydrolytic and oxidative metabolites of [^14C] Compound I were detected in plasma.
Bile duct and jugular vein cannulated (BDC/JVC) male Sprague-Dawley rats (Hla®: [SD] CVF®, 6-10 weeks old and weighing 300±50 g at dosing), were purchased from Hilltop Laboratories (Scottdale, Pa.). Upon receipt, each rat was marked on the tail and given an ear tag with a unique identification number.
The dosing solution was prepared as follows: 7.96 mg of non-radiolabeled Compound I, 10.16 mg of [^13C] Compound I and 2.99 mg of [^14C] Compound I (77.7 μCi of radioactivity) were weighed into a vial. The compounds were then dissolved in 1.6 mL of a cremophore EL/ethanol solution (1:1, v/v) and diluted with 6.4 mL of sterile water. The total weight of the dosing solution was 7.53 g. The concentration of [^14C] Compound I in the dosing solution was […] (10.32 μCi/g) of solution. The nominal specific activity was 3.68 μCi/mg (8170 dpm/μg).
Two rats, housed individually in Nalgene metabolic cages, were each given a single 25-mg/kg nominal dose of [^14C] Compound I orally by gavage. The actual amount of dosing solution administered to each animal was determined by weighing the loaded dosing syringe before dose administration and the emptied syringe after dose administration. Bile was collected from each animal between −1-0 (pre-dose), 0-6, 6-12, and 12-24 hr after dosing. Urine was collected between −24-0 (predose), 0-12, and 12-24 hr after dosing. Both the bile and urine samples were collected in tubes set on dry ice. At 0.5, 6, and 12 hr after dosing, blood samples (−1.2 mL) were collected from the jugular vein cannula into a heparinized syringe. At 24 hr after dosing, animals were sacrificed by CO2 asphyxiation. Terminal blood was collected by cardiac puncture into a heparinized vacutainer. Predose blood sample was collectd from a separate control animal. Blood was centrifuged at 2,500 rpm and 4° C. for 10 min to separate the plasma. Bile, urine, and plasma samples were weighed and stored at −20° C. prior to analysis.
Concentrations of radioactivity in bile, urine, and plasma samples were determined by counting duplicate aliquots of each sample in 5 mL of Ready Value™ cocktail (Beckman Instrunents, Inc.) with a Beckman LS 3801, LS 5000TD, or LS6000TA Liquid Scintillation Counter for 10 min or until the 2-sigma error was less than or equal to 2%, whichever came first. Quench correction was performed using an external standard method. Most of the HPLC fractions used to prepare reconstructed HPLC chromatograms were counted for 5 minutes except for plasma samples, which were counted for 10 minutes.
A portion (−20% of each sample) of the 0-6, 6-12, and 12-24 hr bile samples from two rats were pooled by interval to prepare three pooled samples. A portion (−20% of each sample) of the 0-6, 6-12, and 12-24 hr bile samples from two rats were pooled together to prepare a 0-24 hr sample. Duplicate 10-μL aliquots of each pooled sample were taken for radioactivity counting.
A portion (−20% of each sample) of the 0-12 and 12-24 hr urine samples from two rats were pooled by interval to prepare two pooled samples. […]

tumors = conditions: Proc Am Assoc Cancer Res 1999 40 Abs 1905; cited from earlier work
[8] = prior art; cited from earlier work
sc M109 = type: in vivo; conditions: oral doses as high as 160 mg/kg/inj, murine tumor models (sc M109)
Excerpt: […]; see Eiseman et al., Second NCI Workshop on Taxol and Taxus (September 1992); Suffness et.al. in TAXOL Science and Applications (CRC Press 1995). […]. Another report by J. Terwogt et. al. from The Lancet, Jul. […] […].

[9] = up to 160 mg/kg/day, Suffness et al.; cited from earlier work
[10] = oral; quote from WO98/53811; cited from earlier work
human tumor xenografts = assay: Oral paclitaxel against human tumor xenografts in athymic mice or rats; conditions: human tumor xenografts implanted in athymic mice or athymic rats
[11] = BDC rats, within 24 hr, average of two rats, total radioactivity

**Q.** For COC(=O)O[C@@]12CO[C@@H]1C[C@H](O)[C@@]1(C)C(=O)[C@H](OC(C)=O)C3=C(C)[C@@H](OC(=O)[C@H](O)[C@@H](NC(=O)OC(C)(C)C)C(C)(C)C)C[C@@](O)([C@@H](OC(=O)c4ccccc4)C12)C3(C)C (some centres unmarked) [Compound I, 3′-tert-butyl-3′-N-tert-butyloxycarbonyl-4-deacetyl-3′-dephenyl-3′-N-debenzoyl-4-O-methoxycarbonyl-paclitaxel], which “parent drug in the incubation mixture remained unchanged” value [1] is on record?
**A.** 31.5%

**Q.** And the “parent drug in the incubation mixture remained unchanged” value [2]?
**A.** 72.5%

**Q.** And the “parent drug in the incubation mixture remained unchanged” value [3]?
**A.** 59.7% and 58.7%

**Q.** What about the “parent drug in the incubation mixture remained unchanged” value [4] of the same compound?
**A.** 2.9%

**Q.** What about the “parent drug in the incubation mixture recovered unchanged” value [5] of the same compound?
**A.** 21.4%

**Q.** What about the “rank order of metabolic stability in the liver microsomes of the five species” value [6] of the same compound?
**A.** rat>dog>mouse>human>monkey

**Q.** And the “total recovery of the administered dose in bile and urine” value ([7]; BDC rats, 24 hr, average)?
**A.** 29.6%

**Q.** And the “administered dose excreted in bile” value [7, 11]?
**A.** 25.8%

**Q.** What about the “administered dose excreted in urine” value [7, 11] of the same compound?
**A.** 3.9%

**Q.** What about the concentration at 24 h ([7]; male, Sprague-Dawley, rat, rats, at 24 hr after dosing, pooled plasma, read-out: concentration of Compound I in plasma (estimated)) of the same compound?
**A.** 61 ng/mL

**Q.** What about the “parent drug detected in bile, % of total radioactivity” value ([7]; rats, 0-24 h pooled bile) of the same compound?
**A.** < 1%

**Q.** What about the “concentration of total radioactivity in plasma” value ([7]; rats, at 24 hr, average) of the same compound?
**A.** 349 ng-equiv./mL

**Q.** And the “oral absorption (estimated)” value ([7]; rats, from bile and urine recovery)?
**A.** at least 30%

**Q.** What about the “parent drug detected in urine” value ([7]; rats, pooled urine) of the same compound?
**A.** ≤ 1%

**Q.** For CC(=O)O[C@H]1C(=O)[C@@]2(C)[C@H]([C@H](OC(=O)c3ccccc3)[C@]34OC(=O)O[C@H]3[C@H](OC(=O)[C@H](O)[C@H](CC(C)C)NC(=O)OC(C)(C)C)C(C)=C1C4(C)C)[C@]1(OC(C)=O)CO[C@@H]1C[C@@H]2O [IDN-5109], which “activity against tumors in mice after oral administration” value (tumors) is on record?
**A.** oral activity

**Q.** Which results are given for O=C(O)CNC(=O)c1ccccc1 [Metabolite M3, hippuric acid]?
**A.** % of the dose in urine accounted for by metabolite(s) ([7]; rats, 0-24 hr pooled urine): ~2.3%; % of total radioactivity in urine accounted for by metabolite(s) ([7]; rats, 0-24 hr pooled urine): ~56% and ~60%

**Q.** Which “oral activity in human or animal models” value [8] does the source give for CC(=O)O[C@@]12CO[C@@H]1C[C@H](O)[C@@]1(C)C(=O)[C@H](O)C3=C(C)[C@@H](OC(=O)[C@H](O)[C@@H](NC(=O)OC(C)(C)C)c4ccccc4)C[C@@](O)([C@@H](OC(=O)c4ccccc4)[C@H]21)C3(C)C [TAXOTERE®, docetaxel] here?
**A.** no oral activity

**Q.** With CC(=O)O[C@H]1C(=O)[C@@]2(C)[C@H]([C@H](OC(=O)c3ccccc3)[C@]3(O)C[C@H](OC(=O)[C@H](O)[C@@H](NC(=O)c4ccccc4)c4ccccc4)C(C)=C1C3(C)C)[C@]1(OC(C)=O)CO[C@@H]1C[C@@H]2O [paclitaxel] as the compound, how does the “efficacy after oral dosing” value (sc M109) read?
**A.** without signs of any efficacy

**Q.** What about the “antitumor activity on oral administration” value [9] of the same compound?
**A.** no evidence of antitumor activity

**Q.** What about the “oral activity in human or animal models” value [8] of the same compound?
**A.** no oral activity

**Q.** What about the “absorbed when administered orally” value [10] of the same compound?
**A.** less than 1%

**Q.** What about the “attempts to demonstrate activity for orally administered drug” value (human tumor xenografts) of the same compound?
**A.** unsuccessful
